Test results from patent US7534788B2, “Benzofuran and benzothiophene-2-carboxylic acid amide derivatives” (Hoffmann-La Roche Inc., priority 2007, dated 2009).
pKi: −log10 of the molar value.

Biological target: T1, histamine 3 receptor (H3R) (Homo sapiens, UniProt Q9Y5N1)
T1 construct: expressed in transfected cells; host or cells: CHO cells (HR3-CHO)
Test: Binding assay with 3H-(R)α-methylhistamine (competition binding)
Details: competition with 3H(R)α-methylhistamine (1 nM), membranes of the human HR3-CHO cell line; Ki calculated from IC50 by Cheng-Prusoff
Protocol: Binding Assay with ^3H—(R)α-methylhistamine
Saturation binding experiments were performed using HR3-CHO membranes prepared as described in Takahashi, K, Tokita, S., Kotani, H. (2003) J. Pharmacol. Exp. Therapeutics 307, 213-218.
An appropriate amount of membrane (60 to 80 μg protein/well) was incubated with increasing concentrations of ^3H(R)α-Methylhistamine di-hydrochloride (0.10 to 10 nM). Non specific binding was determined using a 200 fold excess of cold (R)α-Methylhistamine dihydrobromide (500 nM final concentration). The incubation was carried out at room temperature (in deep-well plates shaking for three hours). The final volume in each well was 250 μl. The incubation was followed by rapid filtration on GF/B filters (pre-soaked with 100 μl of 0.5% PEI in Tris 50 mM shaking at 200 rpm for two hours). The filtration was made using a cell-harvester and the filter plates were then washed five times with ice cold washing buffer containing 0.5 M NaCl. After harvesting, the plates were dried at 55° C. for 60 min, then scintillation fluid (Microscint 40, 40 microl in each well) was added and the amount of radioactivity on the filter was determined in Packard top-counter after shaking the plates for two hours at 200 rpm at room temperature.
Binding Buffer: 50 mM Tris-HCl pH 7.4 and 5 mM MgCl2×6H2O pH 7.4. Washing Buffer: 50 mM Tris-HCl pH 7.4 and 5 mM MgCl2×6H2O and 0.5 M NaCl pH 7.4.
Indirect measurement of affinity of H3R inverse agonists: twelve increasing concentrations (ranging from 10 μM to 0.3 nM) of the selected compounds were always tested in competition binding experiments using membranes of the human HR3-CHO cell line. An appropriate amount of protein, e.g. approximately 500 cpm binding of RAMH at Kd, were incubated for 1 hour at room temperature in 250 μl final volume in 96-well plates in presence of ^3H(R)α-Methylhistamine (1 nM final concentration=Kd). Non-specific binding was determined using a 200 fold excess of cold (R)α-Methylhistamine dihydrobromide.
All compounds were tested at a single concentration in duplicate. […] The concentration at which 50% inhibition of the radioligand ^3H(R)α-methylhistamine is obtained (the IC50) is determined from the linear regression of a plot of the logarithm of the concentration versus percent inhibition measured for the different concentrations. Ki's were calculated from IC50 based on Cheng-Prusoff equation (Cheng, Y, Prusoff, W H (1973) Biochem Pharmacol 22, 3099-3108): Ki=IC50/[1+D/Kd] wherein D is the concentration of the radioligand and Kd is the binding constant for the radioligand binding to the receptor under the conditions used in the competition experiment.

T1 sequence (Q9Y5N1 whole entry): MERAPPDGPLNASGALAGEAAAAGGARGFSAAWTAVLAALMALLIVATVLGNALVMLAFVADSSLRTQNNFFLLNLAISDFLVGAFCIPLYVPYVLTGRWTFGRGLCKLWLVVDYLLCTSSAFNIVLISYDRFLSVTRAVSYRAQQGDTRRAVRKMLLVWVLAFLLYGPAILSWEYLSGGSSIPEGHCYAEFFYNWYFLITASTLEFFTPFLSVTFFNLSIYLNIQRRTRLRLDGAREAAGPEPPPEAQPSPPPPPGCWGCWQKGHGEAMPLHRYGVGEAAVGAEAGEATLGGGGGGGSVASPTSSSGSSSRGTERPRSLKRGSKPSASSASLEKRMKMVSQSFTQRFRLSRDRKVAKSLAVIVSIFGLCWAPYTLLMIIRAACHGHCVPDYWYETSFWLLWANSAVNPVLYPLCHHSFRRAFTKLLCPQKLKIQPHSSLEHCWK

Row | Structure (SMILES) | pKi
1 | COC(=O)N1CCN(C(=O)c2oc3cc(OC4CCN(C(C)C)CC4)c(Cl)cc3c2C(C)C)CC1 [Example 72, 4-[5-Chloro-3-isopropyl-6-(1-isopropyl-piperidin-4-yloxy)-benzofuran-2-carbonyl]-piperazine-1-carboxylic acid methyl ester] | 9.10
2 | CC(C)N1CCC(Oc2cc3oc(C(=O)N4CCS(=O)(=O)CC4)c(-c4ccc(F)cc4)c3cc2Cl)CC1 [Example 82, [5-Chloro-3-(4-fluoro-phenyl)-6-(1-isopropyl-piperidin-4-yloxy)-benzofuran-2-yl]-(1,1-dioxo-1λ6thiomorpholin-4-yl)-methanone] | 9.40
3 | COC(=O)N1CCN(C(=O)c2oc3cc(OC4CCN(C5CCC5)CC4)c(Cl)cc3c2C(C)C)CC1 [Example 76, 4-[5-Chloro-6-(1-cyclobutyl-piperidin-4-yloxy)-3-isopropyl-benzofuran-2-carbonyl]-piperazine-1-carboxylic acid methyl ester] | 9.30
4 | O=C(c1oc2cc(OC3CCN(C4CCC4)CC3)ccc2c1-c1ccc(F)cc1)N1CCC(F)(F)CC1 [Example 65, [6-(1-Cyclobutyl-piperidin-4-yloxy)-3-(4-fluoro-phenyl)-benzofuran-2-yl]-(4,4-difluoro-piperidin-1-yl)-methanone] | 10.00
5 | COC(=O)N1CCN(C(=O)c2oc3cc(OC4CCN(C5CCC5)CC4)c(Cl)cc3c2C)CC1 [Example 94, 4-[5-Chloro-6-(1-cyclobutyl-piperidin-4-yloxy)-3-methyl-benzofuran-2-carbonyl]-piperazine-1-carboxylic acid methyl ester] | 8.64
6 | CC(C)N1CCC(Oc2ccc3c(-c4ccccc4)c(C(=O)N4CCC(F)(F)CC4)oc3c2)CC1 [Example 17, (4,4-Difluoro-piperidin-1-yl)-[6-(1-isopropyl-piperidin-4-yloxy)-3-phenyl-benzofuran-2-yl]-methanone] | 8.89
7 | CC(C)N1CCC(Oc2cc3cc(C(=O)N4CCS(=O)(=O)CC4)sc3cc2Cl)CC1 [Example 69, [6-Chloro-5-(1-isopropyl-piperidin-4-yloxy)-benzo[b]thiophen-2-yl]-(1,1-dioxo-1λ6thiomorpholin-4-yl)-methanone] | 8.82
8 | COC(=O)N1CCN(C(=O)c2oc3cc(OC4CCN(C(C)C)CC4)ccc3c2-c2ccc(F)cc2)CC1 [Example 45, 4-[3-(4-Fluoro-phenyl)-6-(1-isopropyl-piperidin-4-yloxy)-benzofuran-2-carbonyl]-piperazine-1-carboxylic acid methyl ester] | 9.40
9 | Cc1c(C(=O)N2CCC(F)(F)CC2)oc2cc(OC3CCN(C4CCC4)CC3)c(Cl)cc12 [Example 91, [5-Chloro-6-(1-cyclobutyl-piperidin-4-yloxy)-3-methyl-benzofuran-2-yl]-(4,4-difluoro-piperidin-1-yl)-methanone] | 8.59
